Measured values reported in patent US9815883B2, “Inhibiting peptides derived from TREM-like transcript 1 (TLT-1) and uses thereof” (Institut National de la Sante et de la Recherche Medicale …, priority 2010, dated 2017).

System: TREM-1
Assay: Protein phosphorylation analysis in stimulated neutrophils
Format: cell-based, human
Description: For these experiments, isolated human neutrophils were stimulated with TREM-1 agonist (αTREM-1, 5 μg/mL) with or without LR17 (30 μg/mL) or control LR17-scrambled peptide (30 μg/mL) at indicated times. Data are representative of at least 5 different experiments. Results are mean±SD. p values are ***p<0.001 **p<0.01 *p<0.05 [αTREM-1+LR17] versus [αTREM-1].
(A) Activation of TREM-1 phosphorylation pathway: Western Blot of lysates of neutrophils stimulated for 1, 3, 10, 30 and 60 minutes, analysed with antibody to phospho (p)-p38 and (p)-ERK1/2.
For these experiments, isolated human neutrophils or monocytes were stimulated with LPS (0.1 μg/mL) and TREM-1 agonist (αTREM-1, 5 μg/mL) with or without LR17 (30 μg/mL) or control LR17-scrambled peptide (30 μg/mL), at indicated times. Data are representative of at least 5 different experiments. Results are mean±SD. p values are ***p<0.001 **p<0.01 *p<0.05 [LPS/LR17] versus [LPS] or [LPS+αTREM-1/LR17] versus [LPS+αTREM-1].
(A) Western Blot of lysates of neutrophils stimulated for 1, 3, 10, 30 and 60 minutes, analysed with antibody to phosphor (p)-p38 and (p)-ERK1/2.
Depending on the experiment, cells were stimulated in complete medium supplemented with 100 ng/mL of E. Coli LPS (0111:B4, Sigma-Aldrich), anti-TREM-1 mAb (R&Dsystems) and TLT-1-peptides at different times and concentrations on 96-wells plates (Greiner Bio One). Supernatants were collected for cytokine measurements and cells subjected to flow cytometry or lysed for protein phosphorylation analyses and NFkB activity measurement.
Stimulated PMNs were lysed at 1, 3, 10, 30 and 60 minutes with PhosphoSafe Extraction Reagent (Novagen) and centrifuged for 5 minutes at 16,000 g at 4° C. to collect the supernatant. Protein concentration was determined according to Bradford's method (Pierce). […] Alternatively, PMNs were analyzed after 20 minutes of stimulation for a panel of multiple phosphorylated proteins by immunoblot (Human Phospho-Kinase Array, R&Dsystems). Acquisition and quantitative signals density analyses were done by LAS-4000 imager and Multi-Gauge software (Fujifilm).

Sequence: LQEEDAGEYGCMVDGAR (listed as Homo sapiens) [LR17]
- phosphorylation of p38 and ERK1/2 (LPS 0.1 μg/mL with or without αTREM-1, peptide 30 μg/mL): decreased
- phosphorylation of mTOR, Lyn, AKT, MSK1/2, MEK 1/2, GSK 3α/β, RSK, and p53 (phosphoprotein arrays) (TREM-1 signalling, data not shown): reduced
- p38 MAPK and ERK 1/2 phosphorylation (αTREM-1 5 μg/mL, peptide 30 μg/mL, 1-60 minutes): partly abrogated
